Experiments:
Type in all cases: cell-based
[1] = target: T1, pERK1/2 (Thr202/Tyr204), NCI-1H358 (KRAS G12C) (Homo sapiens, UniProt P01116, G12C); assay: Assay of intracellular pERK1/2 (Thr202/Tyr204) phosphorylation in NCI-H358 cells (KRAS G12C); conditions: pERK1/2, 2 days, read-out: NCI-H358 (KRAS G12C) IC50
T1 construct: pERK1/2 HTRF read-out
Summary of the method: (§1)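 Cells (10000-12000/well) exposed to 3-fold compound dilutions for 2 days at 37 °C, then lysed; pERK1/2 (Thr202/Tyr204) measured by HTRF with d2 and cryptate antibodies, 665/615 nm ratio.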

[2] = target: T2, pERK1/2 (Thr202/Tyr204), PANC-1 (KRAS G121D) (Homo sapiens, UniProt P01116, G12D); assay: Assay of intracellular pERK1/2 (Thr202/Tyr204) phosphorylation in PANC-1 cells (KRAS G12D); conditions: pERK1/2, 2 days, read-out: PANC-1 (KRAS G12D) IC50
T2 construct: pERK1/2 HTRF read-out
T2 sequence (P01116 1-188 isoform P01116-2 G12D): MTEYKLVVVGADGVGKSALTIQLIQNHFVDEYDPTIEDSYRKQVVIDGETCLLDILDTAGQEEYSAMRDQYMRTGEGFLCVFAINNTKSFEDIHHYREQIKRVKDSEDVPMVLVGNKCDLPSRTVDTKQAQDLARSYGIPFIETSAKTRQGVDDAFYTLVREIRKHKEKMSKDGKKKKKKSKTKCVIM
Summary of the method: as §1

[3] = target: T3, pERK1/2 (Thr202/Tyr204), NCI-1H441 (KRAS G12V) (Homo sapiens, UniProt P01116, G12V); assay: Assay of intracellular pERK1/2 (Thr202/Tyr204) phosphorylation in NCI-H441 cells (KRAS G12V); conditions: pERK1/2, 2 days, read-out: NCI-H441 (KRAS G12V) IC50
T3 construct: pERK1/2 HTRF read-out
T3 sequence (P01116 1-188 isoform P01116-2 G12V): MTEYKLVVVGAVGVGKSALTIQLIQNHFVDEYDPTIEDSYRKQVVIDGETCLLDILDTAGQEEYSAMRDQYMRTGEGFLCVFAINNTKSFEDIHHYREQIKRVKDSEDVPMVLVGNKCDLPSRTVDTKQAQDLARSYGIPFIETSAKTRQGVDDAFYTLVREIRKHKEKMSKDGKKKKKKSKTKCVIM
Summary of the method: as §1

T1 sequence (P01116 1-188 isoform P01116-2 G12C): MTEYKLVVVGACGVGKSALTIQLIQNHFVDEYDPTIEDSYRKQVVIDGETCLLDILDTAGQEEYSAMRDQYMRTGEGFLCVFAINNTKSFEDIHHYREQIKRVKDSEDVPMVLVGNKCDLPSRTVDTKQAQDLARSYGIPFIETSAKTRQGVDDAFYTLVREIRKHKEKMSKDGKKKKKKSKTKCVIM

Row | Compound | IC50 [1] [nM] | IC50 [2] [nM] | IC50 [3] [nM]
1 | Cc1cc2[nH]nc(C)c2c(-c2cc3nc(OC[C@@]45CCCN4C[C@H](F)C5)nc4c3c(n2)OC[C@H](C)N4C(C)c2cccnc2N)c1C(F)(F)F (stereo partly drawn) [Compound 385] | 0.7 | 0.4 | 2
2 | CC[C@H]1COc2nc(-c3c(C(F)(F)F)c(C)cc4[nH]ncc34)c(F)c3nc(OC[C@@]45CCCN4C[C@H](F)C5)nc(c23)N1C(C)c1cccnc1N (stereo partly drawn) [Compound 387] | 2 | 17 | 5
3 | Cc1cc2[nH]ncc2c(-c2nc3c4c(nc(OC[C@@]56CCCN5C[C@H](F)C6)nc4c2F)N(C(C)c2cccnc2N)[C@H]2CCOC[C@@H]2O3)c1C(F)(F)F (stereo partly drawn) [Compound 388] | > 100 | > 100 | > 100
4 | Cc1cc2[nH]ncc2c(-c2nc3c4c(nc(OC[C@@]56CCCN5C[C@H](F)C6)nc4c2F)N(C(C)c2cccnc2N)[C@H]2CCC[C@H]2O3)c1C(F)(F)F (stereo partly drawn) [Compound 389] | 60 | > 100 | > 100
5 | Cc1cc2[nH]ncc2c(-c2nc3c4c(nc(OC[C@@]56CCCN5C[C@H](F)C6)nc4c2F)N([C@H](C)c2cccnc2N)[C@@H](C2CC2)CO3)c1C(F)(F)F [Compound 390] | 11 | > 100 | 31
6 | Cc1cc2[nH]ncc2c(-c2nc3c4c(nc(OC[C@@]56CCCN5C[C@H](F)C6)nc4c2F)N([C@@H](C)c2cccnc2N)[C@@H](C2CC2)CO3)c1C(F)(F)F [Compound 391] | > 100 | > 100 | > 100
7 | Cc1cc2[nH]ncc2c(-c2nc3c4c(nc(OC[C@@]56CCCN5C[C@H](F)C6)nc4c2F)N(C(C)c2cccnc2N)[C@@H]2COCC[C@H]2O3)c1C(F)(F)F (stereo partly drawn) [Compound 392] | > 100 | > 100 | > 100
8 | Cc1cc2[nH]ncc2c(-c2nc3c4c(nc(OC[C@@]56CCCN5C[C@H](F)C6)nc4c2F)N(C(C)c2cccnc2N)[C@H]2CCC[C@@H]2O3)c1C(F)(F)F (stereo partly drawn) [Compound 393] | > 100 | > 100 | > 100
9 | Cc1c(C(F)(F)F)c(-c2nc3c4c(nc(OCC5(CN(C)CCO)CC5)nc4c2F)N(C(C)c2cccnc2N)[C@@H](C)CO3)c2cn[nH]c2c1F (stereo partly drawn) [Compound 394, (*)2-(((1-((((9S)-10-(1-(2-aminopyridin-3-yl)ethyl)-4-fluoro-5-(7-fluoro-6-methyl-5-(trifluoromethyl)-1H-indazol-4-yl)-9-methyl-9,10-dihydro-8H-7-oxa-1,3,6,10-tetraazacyclohepta[de]naphthalen-2-yl)oxy)methyl)cyclopropyl)methyl)(methyl)amino)ethan-1-ol] | 1 | 36 | 2
10 | Cc1c(C(F)(F)F)c(-c2nc3c4c(nc(OCC5(CN(C)C6CC6)CC5)nc4c2F)N(C(C)c2cccnc2N)[C@@H](C)CO3)c2cn[nH]c2c1F (stereo partly drawn) [Compound 395] | 1 | 21 | 4
11 | CC(c1cccnc1N)N1c2nc(OC[C@@]34CCCN3C[C@H](F)C4)nc3c(F)c(-c4c5ccccc5cc5[nH]ncc45)nc(c23)O[C@H]2CCC[C@@H]21 (stereo partly drawn) [Compound 398] | 212 | 264 | 472
12 | C[C@H](c1cccnc1N)N1c2nc(OC[C@@]34CCCN3C[C@H](F)C4)nc3c(F)c(-c4c5ccccc5cc5[nH]ncc45)nc(c23)O[C@@H]2CCC[C@@H]21 [Compound 399] | 65 | 403 | 57
13 | C[C@@H](c1cccnc1N)N1c2nc(OC[C@@]34CCCN3C[C@H](F)C4)nc3c(F)c(-c4c5ccccc5cc5[nH]ncc45)nc(c23)O[C@@H]2CCC[C@@H]21 [Compound 400] | 676 | 831 | > 1000
14 | CC(c1cccnc1N)N1c2nc(OC[C@@]34CCCN3C[C@H](F)C4)nc3cc(-c4c5ccccc5cc5[nH]nc(C6CC6)c45)nc(c23)OC[C@@H]1C (stereo partly drawn) [Compound 403] | 112 | 997 | 308

These reach a lower IC50 [1]. Values come first.

Row | IC50 [1] [nM] | IC50 [2] [nM] | IC50 [3] [nM] | Compound
15 | 0.2 | 0.2 | 0.4 | Cc1c(C(F)(F)F)c(-c2nc3c4c(nc(OC[C@@]56CCCN5C[C@H](F)C6)nc4c2F)N(C(C)c2cccnc2N)[C@@H](C)CO3)c2c(Cl)n[nH]c2c1F (stereo partly drawn) [Compound 381]
16 | 0.5 | 0.4 | 0.4 | Cc1c(C(F)(F)F)c(-c2cc3nc(OC[C@@]45CCCN4C[C@H](F)C5)nc4c3c(n2)OC[C@H](C)N4C(C)c2cccnc2N)c2c(C)n[nH]c2c1F (stereo partly drawn) [Compound 383]
17 | 0.4 | 6 | 0.7 | CC(c1cccnc1N)N1c2nc(OC[C@@]34CCCN3C[C@H](F)C4)nc3cc(-c4c5ccccc5cc5[nH]ncc45)nc(c23)OC[C@@H]1C (stereo partly drawn) [Compound 386]
18 | < 0.457 | 6 | 1 | Cc1c(C(F)(F)F)c(-c2nc3c4c(nc(OCC5(CN(C)C)CC5)nc4c2F)N(C(C)c2cccnc2N)[C@@H](C)CO3)c2cn[nH]c2c1F (stereo partly drawn) [Compound 396]
19 | < 0.457 | 0.7 | 0.8 | CCc1c(F)ccc2cc(O)cc(-c3nc4c5c(nc(OCC6(CN(C)C7CC7)CC6)nc5c3F)N(C(C)c3cccnc3N)[C@@H](C)CO4)c12 (stereo partly drawn) [Compound 397]
20 | 0.3 | 0.3 | 0.4 | Cc1n[nH]c2cc3ccccc3c(-c3nc4c5c(nc(OC[C@@]67CCCN6C[C@H](F)C7)nc5c3F)N(C(C)c3cccnc3N)[C@@H](C)CO4)c12 (stereo partly drawn) [Compound 401]
21 | 0.4 | 0.4 | 0.6 | Cc1n[nH]c2cc3ccccc3c(-c3cc4nc(OC[C@@]56CCCN5C[C@H](F)C6)nc5c4c(n3)OC[C@H](C)N5C(C)c3cccnc3N)c12 (stereo partly drawn) [Compound 402]

From patent US20260356851A1, “TRICYCLIC COMPOUNDS AND USES THEREOF” (HUTCHMED LIMITED, priority 2023, published 2026)
